Structures are written as SMILES.

In the experiment the target is T1, PTK2 enzyme (Homo sapiens, UniProt Q05397).
T1 construct: purchased Invitrogen PV3832
T1 sequence (Q05397 whole entry): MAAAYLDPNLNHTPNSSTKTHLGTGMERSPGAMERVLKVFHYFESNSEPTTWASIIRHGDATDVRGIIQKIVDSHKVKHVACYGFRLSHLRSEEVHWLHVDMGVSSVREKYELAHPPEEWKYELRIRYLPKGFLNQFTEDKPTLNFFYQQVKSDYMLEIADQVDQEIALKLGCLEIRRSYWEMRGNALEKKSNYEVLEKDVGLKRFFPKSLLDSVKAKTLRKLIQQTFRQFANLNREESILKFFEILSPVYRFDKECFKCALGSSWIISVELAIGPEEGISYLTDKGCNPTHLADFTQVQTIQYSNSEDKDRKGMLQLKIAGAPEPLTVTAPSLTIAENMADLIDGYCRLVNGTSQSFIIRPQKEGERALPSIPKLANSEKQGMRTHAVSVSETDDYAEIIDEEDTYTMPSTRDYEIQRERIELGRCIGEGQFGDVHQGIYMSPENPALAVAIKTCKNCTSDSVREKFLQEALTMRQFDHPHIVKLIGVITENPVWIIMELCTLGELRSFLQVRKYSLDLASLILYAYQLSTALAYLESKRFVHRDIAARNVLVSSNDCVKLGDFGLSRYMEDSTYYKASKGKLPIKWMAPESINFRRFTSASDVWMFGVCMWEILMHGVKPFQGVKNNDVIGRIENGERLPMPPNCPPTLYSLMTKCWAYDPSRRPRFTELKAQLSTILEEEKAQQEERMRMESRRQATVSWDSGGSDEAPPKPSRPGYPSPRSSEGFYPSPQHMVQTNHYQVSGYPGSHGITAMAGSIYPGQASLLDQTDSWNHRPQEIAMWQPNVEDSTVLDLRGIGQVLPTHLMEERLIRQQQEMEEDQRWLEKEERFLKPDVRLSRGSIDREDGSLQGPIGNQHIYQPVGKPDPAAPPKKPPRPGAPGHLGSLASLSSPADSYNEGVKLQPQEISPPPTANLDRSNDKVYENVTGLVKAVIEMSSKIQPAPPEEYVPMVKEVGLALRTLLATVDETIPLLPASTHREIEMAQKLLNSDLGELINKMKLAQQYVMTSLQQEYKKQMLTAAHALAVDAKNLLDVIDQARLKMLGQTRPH
Nature of the experiment: PTK2 enzyme test, Assay 1 (DELFIA, poly-Glu-Tyr substrate, antibody PT60). It is filed as biochemical. To be noted: Assay 1 (values without *); 1 h pre-incubation, 2% DMSO. As for the experimental part:
This test uses active PTK2 enzyme (Invitrogen Code PV3832) and poly-Glu-Tyr (4:1, Sigma P-0275) as the kinase substrate. The kinase activity is detected through the phosphorylation of the substrate in a DELFIA™ assay. The phosphorylated substrate is detected with the europium-labelled phosphotyrosine antibody PT60 (Perkin Elmer, No.: AD00400).
In order to determine concentration-activity curves with PTK2-inhibitors the compounds are serially diluted in 10% DMSO/H2O and 10 μL of each dilution are placed in each well of a 96-well microtitre plate (clear plate with a U-shaped base, Greiner No. 650101) (the inhibitors are tested in duplicates) and mixed with 10 μL/well of PTK2 kinase (0.01 μg/well). PTK2 kinase has been correspondingly diluted beforehand with kinase dilution buffer (20 mM TRIS/HCl pH 7.5, 0.1 mM EDTA, 0.1 mM EGTA, 0.286 mM sodium orthovanadate, 10% glycerol with the addition of freshly prepared BSA (fraction V, 1 mg/mL) and DTT (1 mM)). The test compound and the PTK2 kinase are pre-incubated for 1 h at RT and shaken at 500 revolutions per min. The reaction is started by the addition of 10 μL/well poly (Glu,Tyr) substrate (25 μg/well poly (Glu, Tyr), 0.05 μg/well biotinylated poly (Glu,Tyr) dissolved in 250 mM TRIS/HCl pH 7.5, 9 mM DTT)—the final concentration of DMSO is 2%. Then 20 μL of ATP Mix (30 mM TRIS/HCl pH 7.5, 0.02% Brij, 0.2 mM sodium orthovanadate, 10 mM magnesium acetate, 0.1 mM EGTA, 1× phosphatase inhibitor cocktail 1 (Sigma, No.: P2850), 50 μM ATP (Sigma, No.: A3377; 15 mM stock solution)) are added. After 1 h of kinase reaction (the plates are shaken at 500 rpm), the reaction is stopped by the addition of 12 μL/well 100 mM EDTA, pH 8.0 and shaken for a further 5 min at RT (500 rpm). 55 μL of the reaction mixture are transferred into a streptavidin plate (Strepta Well High Bind (transparent, 96-well) made by Roche, No.: 11989685001) and incubated for 1 h at RT (shaking at 500 rpm). Then the microtitre plate is washed three times with 200 μL/well D-PBS (Invitrogen, No. 14190). 100 μL of a solution containing DELFIA Eu-N1 Anti-Phosphotyrosine PT60 antibody (Perkin Elmer, No.: AD0040, diluted 1:2000 in DELFIA test buffer (Perkin Elmer, No.: 1244-111)) is then added and the mixture is incubated for 1 h at RT (shaking at 500 rpm). Then the plate is washed three times with 200 μL/well DELFIA washing buffer (Perkin Elmer, No.: 1244-114), 200 μL/well strengthening solution (Perkin Elmer, No.: 1244-105) are added and the mixture is incubated for 10 min at RT (shaking at 300 rpm).
The time-delayed europium fluorescence is then measured in a microtitre plate reader (VICTOR^3, Perkin Elmer). […] Wells that contain test buffer instead of enzyme are used as a control of the background kinase activity.
The IC50 values are determined from analyses of the concentration activity by iterative calculation with the aid of a sigmoid curve analysis algorithm (FIFTY, based on Graph PAD Prism Version 3.03) with a variable Hill coefficient.
For orientation: IC50 means the concentration that inhibits the measured activity by half. High values mean lower potency, low ones higher potency. `COc1cc(C(=O)N[C@H]2CCCN(C)C2)ccc1Nc1ncc(C(F)(F)F)c(N[C@@H]2CCCC[C@H]2N(C)C(C)=O)n1` [Example I-107] came in with an IC50 of 1 nM. In the case of `COc1cc(C(=O)NC2CCC(N(C)C)CC2)ccc1Nc1ncc(C(F)(F)F)c(N[C@@H]2CCCC[C@H]2N(C)C(C)=O)n1` (stereo partly drawn) [Example I-108] it was 1 nM; in that of `COc1cc(C(=O)NC2CCN(C(C)C)CC2)ccc1Nc1ncc(C(F)(F)F)c(N[C@@H]2CCCC[C@H]2N(C)C(C)=O)n1` [Example I-109], 1 nM; in that of `COCCNC(=O)c1ccc(Nc2ncc(C(F)(F)F)c(N[C@@H]3CCCC[C@H]3N(C)C(C)=O)n2)c(OC)c1` [Example I-110], 2 nM. In the case of `COc1cc(C(=O)N[C@@H]2CCCN(C)C2)ccc1Nc1ncc(C(F)(F)F)c(N[C@@H]2CCCC[C@H]2N(C)C(C)=O)n1` [Example I-111] it was 1 nM; in that of `COc1cc(C(=O)NCCCN(C)C)ccc1Nc1ncc(C(F)(F)F)c(N[C@@H]2CCCC[C@H]2N(C)C(C)=O)n1` [Example I-112], 1 nM; in that of `CON[C@H]1CCCC[C@H]1Nc1nc(Nc2ccc(C(=O)NC3CCN(C)CC3)cc2OC)ncc1C(F)(F)F` [Example I-113], 5 nM.

Compound `COc1cc(C(=O)NC2CCN(C)CC2)ccc1Nc1ncc(C(F)(F)F)c(N[C@@H]2CCCC[C@@H]2N(OC)C(C)=O)n1` [Example I-114] yielded an IC50 of 1 nM. In the case of `COc1cc(CN2CCOCC2)ccc1Nc1ncc(C(F)(F)F)c(N[C@@H]2CCCC[C@H]2NC(C)=O)n1` [Example I-115] it was 1 nM; in that of `COc1cc(CN2CCN(C)CC2)ccc1Nc1ncc(C(F)(F)F)c(N[C@@H]2CCCC[C@H]2NC(C)=O)n1` [Example I-116], 1 nM. The compound `COc1cc(CN2CCCC2)ccc1Nc1ncc(C(F)(F)F)c(N[C@@H]2CCCC[C@H]2NC(C)=O)n1` [Example I-117] gave an IC50 of 1 nM.

As to `COc1cc(CN(C)C)ccc1Nc1ncc(C(F)(F)F)c(N[C@@H]2CCCC[C@H]2NC(C)=O)n1` [Example I-118], the IC50 turned out to be 1 nM. The value for `CON[C@@H]1CCCC[C@H]1Nc1nc(Nc2ccc(C(=O)NC3CCN(C)CC3)cc2OC)ncc1C(F)(F)F` [Example I-119] was 6 nM; that for `CCC(=O)N[C@@H]1CCCC[C@H]1Nc1nc(Nc2cc(F)c(C(=O)NC3CCN(C)CC3)cc2OC)ncc1C(F)(F)F` [Example I-120] was 2 nM. The value for `COc1cc(C(=O)NC2CCN(C)CC2)c(F)cc1Nc1ncc(C(F)(F)F)c(N[C@@H]2CCCC[C@H]2NC(=O)C(C)C)n1` [Example I-121] was 3 nM. In the case of `CCN1CCC(NC(=O)c2ccc(Nc3ncc(C(F)(F)F)c(N[C@@H]4CCC[C@H]4N(C)S(C)(=O)=O)n3)c(OC)c2)CC1` [Example I-129] it was 0.73 nM. In the case of `COc1cc(C(=O)NOCCN(C)C)ccc1Nc1ncc(C(F)(F)F)c(N[C@@H]2CCCC[C@H]2N(C)S(C)(=O)=O)n1` [Example I-132], the IC50 is 0.93 nM. In the case of `COc1cc(C(=O)NC2CCN(C)CC2)c(F)cc1Nc1ncc(C(F)(F)F)c(N[C@@H]2CCCC[C@H]2NS(C)(=O)=O)n1` [Example I-141] it was 1 nM; in that of `COc1cc(N2CCN(C)CC2)ccc1Nc1ncc(C(F)(F)F)c(N[C@@H]2CCCC[C@H]2N(C)S(C)(=O)=O)n1` [Example I-143], 0.94 nM. Compound `COc1cc(N2CCN(C(C)(C)C)CC2)ccc1Nc1ncc(C(F)(F)F)c(N[C@@H]2CCCC[C@H]2N(C)S(C)(=O)=O)n1` [Example I-145] had an IC50 of 3 nM. The value for `CCN([C@@H]1CCCC[C@H]1Nc1nc(Nc2ccc(C(=O)NC3CCCN(C)C3)cc2OC)ncc1C(F)(F)F)S(C)(=O)=O` (stereo partly drawn) [Example I-149] was 2 nM. The compound `COc1cc(N2CCN(CC(=O)N(C)C)CC2)ccc1Nc1ncc(C(F)(F)F)c(N[C@@H]2CCCC[C@H]2N(C)S(C)(=O)=O)n1` [Example I-150] came in with an IC50 of 2 nM. In the case of `COc1cc(C(=O)NC2CCN(C)CC2)c(F)cc1Nc1ncc(C(F)(F)F)c(N[C@@H]2CCCC[C@H]2NC(C)=O)n1` [Example I-154] it was 1 nM; in that of `CCS(=O)(=O)N(C)[C@@H]1CCCC[C@H]1Nc1nc(Nc2ccc(C(=O)NCCN(C)C)cc2OC)ncc1C(F)(F)F` [Example I-156], 2 nM; in that of `COc1cc([C@@H](O)CO)ccc1Nc1ncc(C(F)(F)F)c(N[C@@H]2CCCC[C@H]2N(C)S(C)(=O)=O)n1` [Example I-157], 0.69 nM. In the case of `CCN1CCC(NC(=O)c2cc(OC)c(Nc3ncc(C(F)(F)F)c(N[C@@H]4CCCC[C@H]4N(C)C(C)=O)n3)cc2F)CC1` [Example I-161] it was 1 nM; in that of `COc1cc(C(=O)NC2CCN(C)CC2)ccc1Nc1ncc(Cl)c(N[C@@H]2CCCC[C@H]2N(C)S(C)(=O)=O)n1` [Example I-162], 1 nM. Consider `COc1cc(C(=O)NC2CCCN(C)C2)ccc1Nc1ncc(Cl)c(N[C@@H]2CCCC[C@H]2N(C)S(C)(=O)=O)n1` (stereo partly drawn) [Example I-163], for which half-maximal inhibition (IC50) required 2 nM. For `COCCN1CCC(NC(=O)c2cc(OC)c(Nc3ncc(Cl)c(N[C@@H]4CCCC[C@H]4N(C)S(C)(=O)=O)n3)cc2Cl)CC1` [Example I-167], the IC50 was 3 nM. The value for `COc1cc(C(=O)NC2CCN(C)CC2)c(Cl)cc1Nc1ncc(Cl)c(N[C@@H]2CCCC[C@H]2N(C)S(C)(=O)=O)n1` [Example I-168] was 3 nM; that for `CCN1CCC(NC(=O)c2cc(OC)c(Nc3ncc(Cl)c(N[C@@H]4CCCC[C@H]4N(C)S(C)(=O)=O)n3)cc2F)CC1` [Example I-169] was 4 nM; that for `COc1cc(C(=O)NCCN(C)C)c(F)cc1Nc1ncc(Cl)c(N[C@@H]2CCC[C@H]2N(C)S(C)(=O)=O)n1` [Example I-170] was 2 nM.

As to `COc1cc(C(=O)NCCN(C)C)c(Cl)cc1Nc1ncc(Cl)c(N[C@@H]2CCCC[C@H]2N(C)S(C)(=O)=O)n1` [Example I-171], it took 2 nM to reach half-maximal inhibition (IC50). The value for `COc1cc(C(=O)NCCN(C)C)c(Cl)cc1Nc1ncc(Br)c(N[C@@H]2CCCC[C@H]2N(C)S(C)(=O)=O)n1` [Example I-172] was 2 nM; that for `COc1cc(Nc2ncc(C(F)(F)F)c(N[C@@H]3CCCC[C@H]3N(C)S(C)(=O)=O)n2)ccc1C(=O)NC1CCN(C)CC1` [Example I-173] was 2 nM. The value for `COc1cc(C(=O)NC2CCN(C)CC2)c(F)cc1Nc1ncc(Cl)c(N[C@@H]2CCCC[C@H]2N(C)S(C)(=O)=O)n1` [Example I-174] was 4 nM. The value for `COc1cc(C(=O)NC2CCN(C)CC2)ccc1Nc1ncc(C(C)C)c(N[C@@H]2CCCC[C@H]2N(C)S(C)(=O)=O)n1` [Example I-175] was 0.64 nM; that for `COc1cc(Nc2ncc(C(F)(F)F)c(N[C@@H]3CCCC[C@H]3N(C)S(C)(=O)=O)n2)ccc1NC(C)=O` [Example I-177] was 2 nM; that for `COc1cc(N2CCN(C(C)(C)C)CC2)ccc1Nc1ncc(Br)c(N[C@@H]2CCCC[C@H]2N(C)S(C)(=O)=O)n1` [Example I-182] was 4 nM. On to `COc1cc(N2CCN(C(C)(C)C)CC2)ccc1Nc1ncc(Cl)c(N[C@@H]2CCCC[C@H]2N(C)S(C)(=O)=O)n1` [Example I-183], for which the IC50 turned out to be 4 nM. The value for `CC(=O)Nc1ccc(Nc2ncc(C(F)(F)F)c(N[C@@H]3CCCC[C@H]3N(C)S(C)(=O)=O)n2)cc1C` [Example I-186] was 4 nM; that for `CC(=O)Nc1ccc(Nc2ncc(C(F)(F)F)c(N[C@@H]3CCCC[C@H]3N(C)S(C)(=O)=O)n2)cc1Cl` [Example I-187] was 6 nM; that for `CCN([C@@H]1CCCC[C@H]1Nc1nc(Nc2ccc(NC(C)=O)c(C)c2)ncc1C(F)(F)F)S(C)(=O)=O` [Example I-188] was 16 nM. The value for `CCN([C@@H]1CCCC[C@H]1Nc1nc(Nc2ccc(NC(C)=O)c(OC)c2)ncc1C(F)(F)F)S(C)(=O)=O` [Example I-189] was 9 nM.

`COc1cc(Nc2ncc(Cl)c(N[C@@H]3CCCC[C@H]3NC(C)=O)n2)cc(OC)c1OC` [Example I-190]: half-maximal inhibition (IC50) was put at 13 nM.
